The record followed here is US20250171463A1 (BIOGEN MA INC., priority 2022, published 2025).

SMILES strings stand for the structures. Where only a bound is given, the exact number is not on record here.

In the test the target is T1, EBP (Homo sapiens, UniProt Q15125).
T1 construct: HEK293T cells were utilized as the source of EBP enzyme; endogenous in cells; host or cells: HEK293T
T1 sequence (Q15125 whole entry): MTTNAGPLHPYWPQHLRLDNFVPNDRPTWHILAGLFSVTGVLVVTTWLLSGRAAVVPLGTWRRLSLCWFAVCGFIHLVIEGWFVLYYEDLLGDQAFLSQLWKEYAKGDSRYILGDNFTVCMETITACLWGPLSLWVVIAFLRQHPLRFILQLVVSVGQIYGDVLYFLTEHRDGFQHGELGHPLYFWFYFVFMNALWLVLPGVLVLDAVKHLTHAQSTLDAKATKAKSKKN
As to the kind of experiment: EBP Functional Assay (EBP immunoaffinity LC-MS assay). It counts as biochemical. The following applies: EBP enzyme from HEK293T cells; 30 min with inhibitor, then zymosterol-d5, 37° C., 4 h; percent conversion to dehydrolathosterol-d5 by LC-APCI MRM MS. The essentials: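 IC50 comes from a 4-parameter logistic fit of zymosterol-d5-to-product percent conversion, measured by LC-APCI MRM MS after sterol extraction. Compounds were preincubated 30 min with EBP from HEK293T cells before deuterated substrate was added for 4 h at 37° C; Tasin-1 served as reference.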
For the compound `Cc1nc(C2(C(F)(F)F)CC2)ccc1S(=O)(=O)N1CC2(CN(CC3CCOCC3)C2)C1` [Example 191, 2-((2-methyl-6-(1-(trifluoromethyl)cyclopropyl)pyridin-3-yl)sulfonyl)-6-((tetrahydro-2H-pyran-4-yl)methyl)-2,6-diazaspiro[3.3]heptane], the IC50 is below 100 nM.

In turn, `O=S(=O)(c1ccc(C(F)(F)F)nc1Cl)N1CC2(CN(C3CCOCC3)C2)C1` [Example 192, 2-((2-chloro-6-(trifluoromethyl)pyridin-3-yl)sulfonyl)-6-(tetrahydro-2H-pyran-4-yl)-2,6-diazaspiro[3.3]heptane] displayed an IC50 below 100 nM.

On to `O=S(=O)(c1ccc(C(F)(F)F)nc1C1CC1)N1CC2(CN(C3CCOCC3)C2)C1` [Example 193, 2-((2-cyclopropyl-6-(trifluoromethyl)pyridin-3-yl)sulfonyl)-6-(tetrahydro-2H-pyran-4-yl)-2,6-diazaspiro[3.3]heptane], for which the IC50 was below 100 nM.

With `Cc1cc(C(F)(F)F)ccc1S(=O)(=O)N1CC2(CN(CC3CCOCC3)C2)C1` [Example 194, 2-((2-methyl-4-(trifluoromethyl)phenyl)sulfonyl)-6-((tetrahydro-2H-pyran-4-yl)methyl)-2,6-diazaspiro[3.3]heptane], the IC50 was below 100 nM.

As to `CC1(O)CCC(N2CC3(C2)CN(S(=O)(=O)c2ccc(C(F)(F)F)nc2C2CC2)C3)CC1` (stereo not shown) [Example 195, 4-(6-((2-cyclopropyl-6-(trifluoromethyl)pyridin-3-yl)sulfonyl)-2,6-diazaspiro[3.3]heptan-2-yl)-1-methylcyclohexan-1-ol], the IC50 was below 100 nM.

The compound `CC1(O)CCC(N2CC3(C2)CN(S(=O)(=O)c2ccc(C(F)(F)F)nc2C2CC2)C3)CC1` (stereo not shown) [Example 196, 4-(6-((2-cyclopropyl-6-(trifluoromethyl)pyridin-3-yl)sulfonyl)-2,6-diazaspiro[3.3]heptan-2-yl)-1-methylcyclohexan-1-ol] gave an IC50 of 100 to 250 nM.

As to `O=S(=O)(c1cccnc1C(F)(F)F)N1CC2(CN(CC3CCOCC3)C2)C1` [Example 201, 2-((tetrahydro-2H-pyran-4-yl)methyl)-6-((2-(trifluoromethyl)pyridin-3-yl)sulfonyl)-2,6-diazaspiro[3.3]heptane], the IC50 is 250 to 4000 nM.

As to `Cn1nc(C(F)(F)F)cc1S(=O)(=O)N1CC2(CN(CC3CCOCC3)C2)C1` [Example 202, 2-((1-methyl-3-(trifluoromethyl)-1H-pyrazol-5-yl)sulfonyl)-6-((tetrahydro-2H-pyran-4-yl)methyl)-2,6-diazaspiro[3.3]heptane], the IC50 is below 100 nM.

In turn, `C=Cc1nc(C(F)(F)F)ccc1S(=O)(=O)N1CC2(CN(C3CCOCC3)C2)C1` [Example 203, 2-(tetrahydro-2H-pyran-4-yl)-6-((6-(trifluoromethyl)-2-vinylpyridin-3-yl)sulfonyl)-2,6-diazaspiro[3.3]heptane] yielded an IC50 below 100 nM.

For the compound `CCc1nc(C(F)(F)F)ccc1S(=O)(=O)N1CC2(CN(C3CCOCC3)C2)C1` [Example 204, 2-((2-ethyl-6-(trifluoromethyl)pyridin-3-yl)sulfonyl)-6-(tetrahydro-2H-pyran-4-yl)-2,6-diazaspiro[3.3]heptane], the IC50 was below 100 nM.

On to `CCc1nc(C(F)F)ccc1S(=O)(=O)N1CC2(CN(C3CCOCC3)C2)C1` [Example 205, 2-((6-(difluoromethyl)-2-ethylpyridin-3-yl)sulfonyl)-6-(tetrahydro-2H-pyran-4-yl)-2,6-diazaspiro[3.3]heptane], for which the IC50 was below 100 nM.

In turn, `CCc1nc(C(F)F)ccc1S(=O)(=O)N1CC2(CN(C3CC4(COC4)C3)C2)C1` [Example 206, 2-((6-(difluoromethyl)-2-ethylpyridin-3-yl)sulfonyl)-6-(2-oxaspiro[3.3]heptan-6-yl)-2,6-diazaspiro[3.3]heptane] came in with an IC50 of 100 to 250 nM.

`CCc1nc(C(F)F)ccc1S(=O)(=O)N1CC2(C1)CN([C@H]1CC[C@](C)(O)CC1)C2` [Example 207, (1r,4r)-4-(6-((6-(difluoromethyl)-2-ethylpyridin-3-yl)sulfonyl)-2,6-diazaspiro[3.3]heptan-2-yl)-1-methylcyclohexan-1-ol] yielded an IC50 of 250 to 4000 nM.

`CCc1nc(C(F)F)ccc1S(=O)(=O)N1CC2(CN(C3CCC(C)(O)CC3)C2)C1` (stereo not shown) [Example 208, (1s,4s)-4-(6-((6-(difluoromethyl)-2-ethylpyridin-3-yl)sulfonyl)-2,6-diazaspiro[3.3]heptan-2-yl)-1-methylcyclohexan-1-ol] showed an IC50 of 100 to 250 nM.

As to `O=S(=O)(c1ccc(C(F)(F)F)nc1C1CC1)N1CC2(CN(CC3COC3)C2)C1` [Example 209, 2-((2-cyclopropyl-6-(trifluoromethyl)pyridin-3-yl)sulfonyl)-6-(oxetan-3-ylmethyl)-2,6-diazaspiro[3.3]heptane], the IC50 fell in the range of 100 to 250 nM.

`Cn1nc(C(C)(F)F)cc1S(=O)(=O)N1CC2(CN(CC3CCOCC3)C2)C1` [Example 210, 2-((3-(1,1-difluoroethyl)-1-methyl-1H-pyrazol-5-yl)sulfonyl)-6-((tetrahydro-2H-pyran-4-yl)methyl)-2,6-diazaspiro[3.3]heptane] came in with an IC50 of 100 to 250 nM.

Consider `O=S(=O)(c1ccc(C(F)(F)F)cc1C(F)(F)F)N1CC2(CN(CC3CCOCC3)C2)C1` [Example 211, 2-((2,4-bis(trifluoromethyl)phenyl)sulfonyl)-6-((tetrahydro-2H-pyran-4-yl)methyl)-2,6-diazaspiro[3.3]heptane], for which the IC50 was 100 to 250 nM.

With `O=S(=O)(c1ccc(Cl)nc1C(F)(F)F)N1CC2(CN(C3CCOCC3)C2)C1` [Example 213, 2-((6-chloro-2-(trifluoromethyl)pyridin-3-yl)sulfonyl)-6-(tetrahydro-2H-pyran-4-yl)-2,6-diazaspiro[3.3]heptane], the IC50 was 100 to 250 nM.

Regarding `O=S(=O)(c1ccc(OC(F)(F)F)cc1F)N1CC2(CN(C3CCOCC3)C2)C1` [Example 214, 2-((2-fluoro-4-(trifluoromethoxy)phenyl)sulfonyl)-6-(tetrahydro-2H-pyran-4-yl)-2,6-diazaspiro[3.3]heptane], the IC50 fell in the range of 250 to 4000 nM.

`Cc1cc(C(F)(F)F)ncc1S(=O)(=O)N1CC2(CN(CC3CCOCC3)C2)C1` [Example 217, 2-((4-methyl-6-(trifluoromethyl)pyridin-3-yl)sulfonyl)-6-((tetrahydro-2H-pyran-4-yl)methyl)-2,6-diazaspiro[3.3]heptane] registered an IC50 below 100 nM.

As for `Cn1nc(C(F)(F)F)cc1S(=O)(=O)N1CC2(CN(CC3COC3)C2)C1` [Example 218, 2-((1-methyl-3-(trifluoromethyl)-1H-pyrazol-5-yl)sulfonyl)-6-(oxetan-3-ylmethyl)-2,6-diazaspiro[3.3]heptane], the IC50 was in the range of 100 to 250 nM.

`Cn1nc(C2CC2)cc1S(=O)(=O)N1CC2(CN(CC3CCOCC3)C2)C1` [Example 219, 2-((3-cyclopropyl-1-methyl-1H-pyrazol-5-yl)sulfonyl)-6-((tetrahydro-2H-pyran-4-yl)methyl)-2,6-diazaspiro[3.3]heptane] had an IC50 of 100 to 250 nM.

The compound `O=S(=O)(c1ccc(OC(F)(F)F)cc1F)N1CC2(CN(CC3CCOCC3)C2)C1` [Example 220, 2-((2-fluoro-4-(trifluoromethoxy)phenyl)sulfonyl)-6-((tetrahydro-2H-pyran-4-yl)methyl)-2,6-diazaspiro[3.3]heptane] showed an IC50 of 250 to 4000 nM.

The compound `Cc1cc(C(F)(F)F)cnc1S(=O)(=O)N1CC2(CN(C3CCOCC3)C2)C1` [Example 221, 2-((3-methyl-5-(trifluoromethyl)pyridin-2-yl)sulfonyl)-6-(tetrahydro-2H-pyran-4-yl)-2,6-diazaspiro[3.3]heptane] had an IC50 of 250 to 4000 nM.

Take `Cc1nc(C(F)(F)F)ccc1S(=O)(=O)N1CC2(CN(C3CCC(C)(O)CC3)C2)C1` (stereo not shown) [Example 222, 1-methyl-4-(6-((2-methyl-6-(trifluoromethyl)pyridin-3-yl)sulfonyl)-2,6-diazaspiro[3.3]heptan-2-yl)cyclohexan-1-ol]: the IC50 is 100 to 250 nM.

Consider `Cc1nc(C(F)(F)F)ccc1S(=O)(=O)N1CC2(CN(C3CCC(C)(O)CC3)C2)C1` (stereo not shown) [Example 223, 1-methyl-4-(6-((2-methyl-6-(trifluoromethyl)pyridin-3-yl)sulfonyl)-2,6-diazaspiro[3.3]heptan-2-yl)cyclohexan-1-ol], for which the IC50 was 250 to 4000 nM.

Take `Cc1cc(C(F)(F)F)cnc1S(=O)(=O)N1CC2(CN(CC3CCOCC3)C2)C1` [Example 224, 2-((3-methyl-5-(trifluoromethyl)pyridin-2-yl)sulfonyl)-6-((tetrahydro-2H-pyran-4-yl)methyl)-2,6-diazaspiro[3.3]heptane]: the concentration for half-maximal inhibition (IC50) was 250 to 4000 nM.

In turn, `O=S(=O)(c1c(F)cc(OC(F)F)cc1F)N1CC2(CN(CC3CCOCC3)C2)C1` [Example 225, 2-((4-(difluoromethoxy)-2,6-difluorophenyl)sulfonyl)-6-((tetrahydro-2H-pyran-4-yl)methyl)-2,6-diazaspiro[3.3]heptane] registered an IC50 of 250 to 4000 nM.

As to `O=S(=O)(c1ccc(OC(F)F)cc1F)N1CC2(CN(CC3CCOCC3)C2)C1` [Example 226, 2-((4-(difluoromethoxy)-2-fluorophenyl)sulfonyl)-6-((tetrahydro-2H-pyran-4-yl)methyl)-2,6-diazaspiro[3.3]heptane], the IC50 lay in the range of 250 to 4000 nM.

The compound `O=S(=O)(c1ccc(OC(F)F)cc1F)N1CC2(CN(C3CCOCC3)C2)C1` [Example 227, 2-((4-(difluoromethoxy)-2-fluorophenyl)sulfonyl)-6-(tetrahydro-2H-pyran-4-yl)-2,6-diazaspiro[3.3]heptane] had an IC50 of 100 to 250 nM.

Consider `N#Cc1cc(C(F)(F)F)ccc1S(=O)(=O)N1CC2(CN(CC3CCOCC3)C2)C1` [Example 228, 2-((6-((tetrahydro-2H-pyran-4-yl)methyl)-2,6-diazaspiro[3.3]heptan-2-yl)sulfonyl)-5-(trifluoromethyl)benzonitrile], for which the IC50 fell in the range of 250 to 4000 nM.
